Laboratory results: patent US20060111305A1, “Metabolites of certain [1,4]diazepino[6,7,1-ij]quinoline derivatives and methods of preparation and use thereof” (Wyeth, priority 2004, published 2006)
Where “and” joins values, the source holds several entries; their conditions need not be identical. Equal values may be shown once.

Assays:
[1] = M6 to DCDQ ratios in human urine, LC/MS (Table 35); format: in vivo, healthy human subjects
Method: Drug administration and specimen collection were performed in a randomized, double-blinded, placebo-controlled, ascending single dose study of the safety, tolerability, pharmacokinetics, and pharmacodynamics of DCDQ administered orally to healthy subjects and subjects with schizophrenia and schizoaffective disorder. The specimens were stored at approximately −70° C. until analysis for metabolite profiles and for ratios of carbamoyl glucuronide (M6) to DCDQ.
The 0-4, 4-12 and 12-24 hr urine samples from the same subjects in the single dose groups were analyzed for ratios of M6 to DCDQ. The internal standard was not used in the analysis of urine samples. The samples were diluted for 20-fold with a control urine sample and directly analyzed by LC/MS. To estimate M6-to-DCDQ ratios in human urine, control urine samples were spiked with 200 ng/mL of DCDQ and 1000, 5000, or 10000 ng/mL of DCDQ carbamoyl glucuronide, and were analyzed by LC/MS.
LC/MS System 3 was used for semi-quantitative analysis of metabolite M6 (DCDQ carbamoyl glucuronide) in plasma and urine samples. The HPLC equipment for this LC/MS System consisted of a Thermo Surveyor HPLC (Thermo Electron Corp., San Jose, Calif.), including a Surveyor MS pump and autosampler. Separations were accomplished on a 5 micron Phenomenex Luna C18(2) column, 150×2 mm (Phenomenex, Torrance, Calif.). The autosampler and column temperatures were set at 5° C. and 40° C., respectively. The HPLC mobile phase consisted of 10 mM ammonium acetate (A) and methanol (B), and was delivered at 0.2 mL/min. The linear mobile phase gradient (HPLC Gradient 2) is shown below. During LC/MS sample analysis, up to 3 min of the initial flow was diverted away from the mass spectrometer prior to evaluation of metabolites.
The mass spectrometer used for semi-quantitative anslysis with LC/MS System 3 was a Finnigan TSQ Quantum triple quadrupole mass spectrometer (Thermo Electron Corp.). The mass spectrometer was equipped with an electrospray interface and operated in the positive ionization mode. Settings for this mass spectrometer are listed below.
LC/MS/MS analysis in the selected reaction monitoring (SRM) mode (LC/SRM) was conducted for DCDQ and M6 using the following settings.

5-HT2C = target: T1, 5-HT2C (Homo sapiens, UniProt P28335); conditions: see WO03/091250 and US2004/0009970; cited from earlier work
T1 sequence (P28335 33-458): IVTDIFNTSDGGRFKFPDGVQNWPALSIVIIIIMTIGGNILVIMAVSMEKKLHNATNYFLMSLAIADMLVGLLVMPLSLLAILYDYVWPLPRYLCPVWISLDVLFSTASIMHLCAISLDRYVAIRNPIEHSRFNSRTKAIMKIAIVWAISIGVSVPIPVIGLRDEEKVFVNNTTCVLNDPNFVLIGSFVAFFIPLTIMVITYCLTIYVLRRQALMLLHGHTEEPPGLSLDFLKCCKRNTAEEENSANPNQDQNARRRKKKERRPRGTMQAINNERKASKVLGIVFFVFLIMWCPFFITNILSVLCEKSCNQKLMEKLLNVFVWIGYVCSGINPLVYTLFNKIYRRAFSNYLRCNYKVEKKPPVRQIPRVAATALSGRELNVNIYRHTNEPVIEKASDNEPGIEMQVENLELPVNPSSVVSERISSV

[2] = 50 mg (fasted), 0-4 hr, Mean ± S.D.
[3] = 50 mg (fasted), 0-4 hr, individual subjects
[4] = 50 mg (fasted), 4-12 hr, Mean ± S.D.
[5] = 50 mg (fasted), 4-12 hr, individual subjects
[6] = 50 mg (fasted), 12-24 hr, individual subjects
[7] = 200 mg (fasted), 0-4 hr, Mean ± S.D.
[8] = 200 mg (fasted), 0-4 hr, individual subjects
[9] = 200 mg (fasted), 4-12 hr, Mean ± S.D.
[10] = 200 mg (fasted), 4-12 hr, individual subjects
[11] = 200 mg (fasted), 12-24 hr, Mean ± S.D.
[12] = 200 mg (fasted), 12-24 hr, individual subjects
[13] = 300 mg (fasted), 0-4 hr, Mean ± S.D.
[14] = 300 mg (fasted), 0-4 hr, individual subjects
[15] = 300 mg (fasted), 4-12 hr, Mean ± S.D.
[16] = 300 mg (fasted), 4-12 hr, individual subjects
[17] = 300 mg (fasted), 12-24 hr, Mean ± S.D.
[18] = 300 mg (fasted), 12-24 hr, individual subjects
[19] = 300 mg (fed), 0-4 hr, Mean ± S.D.
[20] = 300 mg (fed), 0-4 hr, individual subjects
[21] = 300 mg (fed), 4-12 hr, Mean ± S.D.
[22] = 300 mg (fed), 4-12 hr, individual subjects
[23] = 300 mg (fed), 12-24 hr, Mean ± S.D.
[24] = 300 mg (fed), 12-24 hr, individual subjects
[25] = 500 mg (fasted), 0-4 hr, Mean ± S.D.
[26] = 500 mg (fasted), 0-4 hr, individual subjects
[27] = 500 mg (fasted), 4-12 hr, Mean ± S.D.
[28] = 500 mg (fasted), 4-12 hr, individual subjects
[29] = 500 mg (fasted), 12-24 hr, Mean ± S.D.
[30] = 500 mg (fasted), 12-24 hr, individual subjects

## O=C(O)[C@H]1O[C@@H](OC(=O)N2CCN3C[C@@H]4CCC[C@@H]4c4cccc(c43)C2)[C@H](O)[C@@H](O)[C@@H]1O [Metabolite M6, carbamoyl glucuronide of DCDQ]
[1]; [2]
  M6 to DCDQ Ratios: 841 ± 798
[1]; [3]
  M6 to DCDQ Ratios: 214 and 571 and 1739
[1]; [4]
  M6 to DCDQ Ratios: 419 ± 174
[1]; [5]
  M6 to DCDQ Ratios: 389 and 606 and 261
[1]; 50 mg (fasted), 12-24 hr, Mean
  M6 to DCDQ Ratios: 155 ± 98.1
[1]; [6]
  M6 to DCDQ Ratios: 143 and 259 and 63.9
[1]; [7]
  M6 to DCDQ Ratios: 151 ± 32.9
[1]; [8]
  M6 to DCDQ Ratios: 169 and 171 and 113
[1]; [9]
  M6 to DCDQ Ratios: 284 ± 98.7
[1]; [10]
  M6 to DCDQ Ratios: 397 and 240 and 215
[1]; [11]
  M6 to DCDQ Ratios: 115 ± 90.4
[1]; [12]
  M6 to DCDQ Ratios: 216 and 85.9 and 42.3
[1]; [13]
  M6 to DCDQ Ratios: 820 ± 365
[1]; [14]
  M6 to DCDQ Ratios: 1167 and 852 and 440
[1]; [15]
  M6 to DCDQ Ratios: 732 ± 702
[1]; [16]
  M6 to DCDQ Ratios: 329 and 1543 and 324
[1]; [17]
  M6 to DCDQ Ratios: 241 ± 212
[1]; [18]
  M6 to DCDQ Ratios: 485 and 127 and 110
[1]; [19]
  M6 to DCDQ Ratios: 1018 ± 520
[1]; [20]
  M6 to DCDQ Ratios: 1162 and 441 and 1451
[1]; [21]
  M6 to DCDQ Ratios: 761 ± 508
[1]; [22]
  M6 to DCDQ Ratios: 375 and 571 and 1337
[1]; [23]
  M6 to DCDQ Ratios: 142 ± 46.0
[1]; [24]
  M6 to DCDQ Ratios: 148 and 92.6 and 184
[1]; [25]
  M6 to DCDQ Ratios: 97.6 ± 55.2
[1]; [26]
  M6 to DCDQ Ratios: 71.5 and 60.2 and 161
[1]; [27]
  M6 to DCDQ Ratios: 84.3 ± 58.6
[1]; [28]
  M6 to DCDQ Ratios: 149 and 34.6 and 69.4
[1]; [29]
  M6 to DCDQ Ratios: 176 ± 128
[1]; [30]
  M6 to DCDQ Ratios: 288 and 36.0 and 203

## c1cc2c3c(c1)[C@H]1CCC[C@H]1CN3CCNC2 [DCDQ, (9aR,12aS)-4,5,6,7,9,9a,10,11,12,12a-decahydro-cyclopenta[c][1,4]diazepine[6,7,1-ij]quinoline, reference compound]
5-HT2C
  5-HT2C agonist activity: potent 5-HT2C agonist
[1]; [2]
  DCDQ concentration in urine: 47.5 ± 58.5 ng/mL
[1]; [3]
  DCDQ concentration in urine: 115 ng/mL and 13.7 ng/mL (2×)
[1]; [4]
  DCDQ concentration in urine: 58.4 ± 58.9 ng/mL
[1]; [5]
  DCDQ concentration in urine: 31 ng/mL and 18.2 ng/mL and 126 ng/mL
[1]; 50 mg (fasted), 12-24 hr, Mean
  DCDQ concentration in urine: 32.7 ± 37.4 ng/mL
[1]; [6]
  DCDQ concentration in urine: 17.7 ng/mL and 5.21 ng/mL and 75.3 ng/mL
[1]; [7]
  DCDQ concentration in urine: 199 ± 124 ng/mL
[1]; [8]
  DCDQ concentration in urine: 251 ng/mL and 288 ng/mL and 57 ng/mL
[1]; [9]
  DCDQ concentration in urine: 118 ± 51.9 ng/mL
[1]; [10]
  DCDQ concentration in urine: 79.5 ng/mL and 177 ng/mL and 97.3 ng/mL
[1]; [11]
  DCDQ concentration in urine: 114 ± 81.5 ng/mL
[1]; [12]
  DCDQ concentration in urine: 23.1 ng/mL and 181 ng/mL and 137 ng/mL
[1]; [13]
  DCDQ concentration in urine: 81.4 ± 82.9 ng/mL
[1]; [14]
  DCDQ concentration in urine: 9.43 ng/mL and 62.8 ng/mL and 172 ng/mL
[1]; [15]
  DCDQ concentration in urine: 62.5 ± 36.8 ng/mL
[1]; [16]
  DCDQ concentration in urine: 21.7 ng/mL and 93.4 ng/mL and 72.3 ng/mL
[1]; [17]
  DCDQ concentration in urine: 128 ± 148 ng/mL
[1]; [18]
  DCDQ concentration in urine: 22.9 ng/mL and 298 ng/mL and 64.1 ng/mL
[1]; [19]
  DCDQ concentration in urine: 19.8 ± 31.3 ng/mL
[1]; [20]
  DCDQ concentration in urine: 55.9 ng/mL and 1.56 ng/mL and 1.82 ng/mL
[1]; [21]
  DCDQ concentration in urine: 155 ± 115 ng/mL
[1]; [22]
  DCDQ concentration in urine: 259 ng/mL and 174 ng/mL and 30.6 ng/mL
[1]; [23]
  DCDQ concentration in urine: 258 ± 125 ng/mL
[1]; [24]
  DCDQ concentration in urine: 351 ng/mL and 116 ng/mL and 308 ng/mL
[1]; [25]
  DCDQ concentration in urine: 914 ± 619 ng/mL
[1]; [26]
  DCDQ concentration in urine: 1569 ng/mL and 835 ng/mL and 339 ng/mL
[1]; [27]
  DCDQ concentration in urine: 1369 ± 658 ng/mL
[1]; [28]
  DCDQ concentration in urine: 1683 ng/mL and 612 ng/mL and 1811 ng/mL
[1]; [29]
  DCDQ concentration in urine: 279 ± 123 ng/mL
[1]; [30]
  DCDQ concentration in urine: 160 ng/mL and 405 ng/mL and 273 ng/mL
